Several values for one entry are separate records, joined by “and”; a condition that tells them apart may be missing. Identical values can stand only once. Each block holds one compound with its values, some of them ahead of it.
Columns and labels:
[1] = target: T1, human recombinant adrenergic α2B receptor (Homo sapiens, UniProt P18089); experiment: Radioligand binding, adrenergic α2B ([3H]Rauwolscine); conditions: for Percentage inhibition of ligand binding, Adrenergic α2B (0.03 μM): repeat datapoints each shown; for inhibition at 0.03 µM: read-out: Percentage inhibition of ligand binding, Adrenergic α2B (0.03 μM), compound at 0.03 μM, repeat datapoints each shown
T1 construct: expressed in transfected cells; host or cells: CHO-K1
T1 sequence (P18089 1-450): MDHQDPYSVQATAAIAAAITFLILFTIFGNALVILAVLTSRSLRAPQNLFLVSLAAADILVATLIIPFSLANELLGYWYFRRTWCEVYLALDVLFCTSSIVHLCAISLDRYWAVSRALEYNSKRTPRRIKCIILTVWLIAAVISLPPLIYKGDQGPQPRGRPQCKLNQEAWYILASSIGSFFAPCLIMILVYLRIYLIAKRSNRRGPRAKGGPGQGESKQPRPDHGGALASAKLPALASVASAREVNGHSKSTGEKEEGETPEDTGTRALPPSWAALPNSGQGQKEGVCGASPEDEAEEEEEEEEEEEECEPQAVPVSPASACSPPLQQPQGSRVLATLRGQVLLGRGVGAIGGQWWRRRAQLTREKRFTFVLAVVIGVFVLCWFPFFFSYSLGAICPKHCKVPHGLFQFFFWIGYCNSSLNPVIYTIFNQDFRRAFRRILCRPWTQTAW
Procedure: To evaluate in radioligand binding assays the activity of compounds of the invention, human recombinant adrenergic α2B receptor expressed in Chinese hamster ovary (CHO) K1 cells (Uhlen, S. et al, Eur. J. Pharmacol. 343(1):93, 1998) in a modified Tris-HCl buffer (50 mM Tris-HCl, pH 7.4, 12.5 mM MgCl2, 1 mM EDTA, 0.2% BSA) was used. Compounds of the invention were incubated with 2.5 nM [3H]Rauwolscine for 60 min at 25° C. Non-specific binding was estimated in the presence of 10 μM Prazosin. Receptor proteins were filtered and washed, the filters were then counted to determine [3H]Rauwolscine specifically bound. […] Compounds of the invention were tested in this biochemical assay and percent inhibition of specific binding was determined. Biochemical assay results are presented as the percent inhibition of specific binding in Table B1.

[2] = target: T2, human recombinant adrenergic α2A receptor (Homo sapiens, UniProt P08913); experiment: Radioligand binding, adrenergic α2A ([3H]MK-912); conditions: for inhibition at 0.1 µM: read-out: Percentage inhibition of ligand binding, Adrenergic α2A (0.1 μM), compound at 0.1 μM
T2 construct: expressed in transfected cells; host or cells: insect Sf9 cells
T2 sequence (P08913 1-465): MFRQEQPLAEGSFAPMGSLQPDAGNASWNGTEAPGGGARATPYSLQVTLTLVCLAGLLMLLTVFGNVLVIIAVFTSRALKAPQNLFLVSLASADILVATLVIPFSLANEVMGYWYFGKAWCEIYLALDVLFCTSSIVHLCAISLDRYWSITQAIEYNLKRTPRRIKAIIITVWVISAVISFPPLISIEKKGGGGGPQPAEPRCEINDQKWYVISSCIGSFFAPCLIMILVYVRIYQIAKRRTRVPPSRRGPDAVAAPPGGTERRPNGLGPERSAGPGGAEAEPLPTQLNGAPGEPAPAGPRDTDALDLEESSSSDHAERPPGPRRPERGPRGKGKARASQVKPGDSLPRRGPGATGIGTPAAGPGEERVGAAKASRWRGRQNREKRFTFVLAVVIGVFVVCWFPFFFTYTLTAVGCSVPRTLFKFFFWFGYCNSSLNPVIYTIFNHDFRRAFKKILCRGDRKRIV
Procedure: To evaluate in radioligand binding assays the activity of compounds of the invention, human recombinant adrenergic α2A receptor expressed in insect Sf9 cells (Uhlen, S. et al, J. Pharmacol. Exp. Ther. 271:1558, 1994) in a modified Tris-HCl buffer (50 mM Tris-HCl, pH 7.4, 12.5 mM MgCl2, 2 mM EDTA) was used. Compounds of invention were incubated with 1 nM [^3H]MK-912 for 60 min at 25° C. MK912 is (2S-trans)-1,3,4,5′,6,6′,7,12b-octahydro-1′,3′-dimethyl-spiro[2H-benzofuro[2,3-a]quinolizine-2,4′(1′H)-pyrimidin]-2′(3′H)-one hydrochloride. Non-specific binding was estimated in the presence of 10 μM WB-4101 (2-(2,6-Dimethoxyphenoxyethyl)aminomethyl-1,4-benzodioxane hydrochloride). Receptor proteins were filtered and washed, the filters were then counted to determine [^3H]MK-912 specifically bound. […] Compounds of the invention were tested in this biochemical assay and percent inhibition of specific binding was determined. Biochemical assay results are presented as the percent inhibition of specific binding in Table B1.

[3] = target: T3, rat adrenergic α1B receptor (Rattus norvegicus, UniProt P15823); experiment: Radioligand binding, adrenergic α1B ([3H]Prazosin); design: species or system Wistar Rat; conditions: for Percentage inhibition of ligand binding, Adrenergic α1B (0.1 μM): compound at 0.1 μM, repeat datapoints each shown
T3 construct: rat adrenergic α1B receptor obtained from Wistar Rat liver; from tissue; host or cells: Wistar rat liver
T3 sequence (P15823 1-515): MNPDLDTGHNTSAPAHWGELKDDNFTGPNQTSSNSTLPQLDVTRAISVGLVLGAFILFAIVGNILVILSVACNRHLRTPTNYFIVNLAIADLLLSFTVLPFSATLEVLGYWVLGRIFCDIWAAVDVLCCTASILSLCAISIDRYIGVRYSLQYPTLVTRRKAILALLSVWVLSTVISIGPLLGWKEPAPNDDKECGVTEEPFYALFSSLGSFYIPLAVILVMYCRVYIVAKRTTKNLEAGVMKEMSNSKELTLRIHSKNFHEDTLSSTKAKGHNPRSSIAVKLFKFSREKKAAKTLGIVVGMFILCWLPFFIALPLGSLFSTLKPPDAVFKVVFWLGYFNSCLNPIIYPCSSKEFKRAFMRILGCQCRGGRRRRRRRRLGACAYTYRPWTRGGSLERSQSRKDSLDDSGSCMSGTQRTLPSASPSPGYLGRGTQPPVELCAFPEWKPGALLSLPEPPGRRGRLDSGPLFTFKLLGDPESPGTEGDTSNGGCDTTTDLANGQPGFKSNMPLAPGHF
Procedure: To evaluate in radioligand binding assays the activity of compounds of the invention, rat adrenergic α1B receptor obtained from Wistar Rat liver (Garcia-S'ainz, J. et al, Biochem. Biophys. Res. Commun. 186:760, 1992; Michel, A. et al, Br. J. Pharmacol. 98:883, 1989) in a modified Tris-HCl buffer (50 mM Tris-HCl buffer, pH 7.4, 0.5 mM EDTA) was used. Compounds of the invention were incubated with 0.25 nM [^3H]Prazosin for 60 min at 25° C. Non-specific binding was estimated in the presence of 10 μM phentolamine. Receptor proteins were filtered and washed, the filters were then counted to determine [^3H]Prazosin specifically bound. […] Compounds of the invention were tested in this biochemical assay and percent inhibition of specific binding was determined. Biochemical assay results are presented as the percent inhibition of specific binding in Table B1.

[4] = [3H]MK-912, repeat datapoints each shown
[5] = 0.1 μM compound, [3H]MK-912, 0.1 µM
[6] = compound at 0.1 μM, [3H]MK-912, 0.1 µM

Compound: Cc1ccc2c(c1)c1c(n2CC(OC(=O)C(N)C(C)C)c2ccncc2)CCN(C)C1 (single isomer, unassigned) [25a]
Percentage inhibition of ligand binding, Adrenergic α2B (0.03 μM) ([1]; compound at 0.03 μM, 0.03 µM): 54%
Percentage inhibition of ligand binding, Adrenergic α1B (0.1 μM) ([3]; 0.1 µM): 4%

Compound: Cc1ccc2c(c1)c1c(n2CC(OC(=O)C(N)C(C)C)c2ccncc2)CCN(C)C1 (single isomer, unassigned) [25b]
Percentage inhibition of ligand binding, Adrenergic α2B (0.03 μM) ([1]; compound at 0.03 μM, 0.03 µM): 75%
Percentage inhibition of ligand binding, Adrenergic α1B (0.1 μM) ([3]; 0.1 µM): 12%

Compound: Cc1ccc2c(c1)c1c(n2CC(OC(=O)C(C)(C)C)c2ccncc2)CCN(C)C1 (single isomer, unassigned) [130a]
Percentage inhibition of ligand binding, Adrenergic α2B ([1]; 0.03 μM compound, 0.03 µM): 100% and 104%
Percentage inhibition of ligand binding, Adrenergic α2B ([1]; 0.1 μM compound): 107%
Percentage inhibition of ligand binding, Adrenergic α1B ([3]; 0.03 μM compound, 0.03 µM): 32%
Percentage inhibition of ligand binding, Adrenergic α1B ([3]; 0.1 μM compound, 0.1 µM): 66% and 68%

Compound: Cc1cnc2c(c1)c1c(n2CC(O)c2ccc(F)cc2)CCN(C)C1 (single isomer, unassigned) [136b]
Percentage inhibition of ligand binding, Adrenergic α2B ([1]; 0.03 μM compound, 0.03 µM): 69%
Percentage inhibition of ligand binding, Adrenergic α2A [2, 5]: 21%

Compound: Cc1ccc(CCn2c3c(c4cc(Cl)cnc42)C2CCCN2CC3)cn1 (single isomer, unassigned) [137a]
Percentage inhibition of ligand binding, Adrenergic α2B ([1]; 0.03 μM compound, 0.03 µM): 104%
Percentage inhibition of ligand binding, Adrenergic α1B ([3]; 0.1 μM compound, 0.1 µM): 94%

Compound: Cc1cnc2c(c1)c1c(n2CC(C)(O)c2ccc(C)nc2)CCN2CCCC12 (single isomer, unassigned) [148d]
Percentage inhibition of ligand binding, Adrenergic α2B ([1]; 0.03 μM compound, 0.03 µM): 11%
Percentage inhibition of ligand binding, Adrenergic α2A [2, 5]: −11%

Compound: Cc1cnc2c(c1)c1c(n2CC(N)c2ccc(C#N)cc2)CCN(C)C1 (single isomer, unassigned) [159a]
Percentage inhibition of ligand binding, Adrenergic α2B ([1]; 0.03 μM compound, 0.03 µM): 37%
Percentage inhibition of ligand binding, Adrenergic α1B ([3]; 0.1 μM compound, 0.1 µM): −2%

Compound: C/C(=C\n1c2c(c3cc(C)ccc31)C1CCCCN1CC2)c1ccc(F)cc1 (single isomer, unassigned) [199a]
Percentage inhibition of ligand binding, Adrenergic α2B ([1]; 0.03 μM compound, 0.03 µM): 94%
Percentage inhibition of ligand binding, Adrenergic α2A [2, 5]: 96%

Compound: C/C(=C\n1c2c(c3cc(C)ccc31)C1CCCCN1CC2)c1ccc(F)cc1 (single isomer, unassigned) [199b]
Percentage inhibition of ligand binding, Adrenergic α2B ([1]; 0.03 μM compound, 0.03 µM): 27%
Percentage inhibition of ligand binding, Adrenergic α2A [2, 5]: 61%

Compound: Cc1ccc2c(c1)c1c(n2CC(O)c2ccc(C#N)cc2)CCN(C)C1 (stereo not drawn) [142a]
Percentage inhibition of ligand binding, Adrenergic α2B ([1]; 0.03 μM compound): 71%
Percentage inhibition of ligand binding, Adrenergic α1B ([3]; 0.1 μM compound): 68%

Compound: Cc1ccc2c(c1)c1c(n2CC(C)(O)c2ccc(C)nc2)CN(C)CC1 (stereo not drawn) [196b]
Percentage inhibition of ligand binding, Adrenergic α2B ([1]; 0.03 μM compound, 0.03 µM): −2%
Percentage inhibition of ligand binding, Adrenergic α1B ([3]; 0.1 μM compound, 0.1 µM): 37%

Results, then the compound that gave them:

Ki ([1]; CHO-K1, repeat assays each datapoint shown): 0.22 nM
Percentage inhibition of ligand binding, Adrenergic α2B (0.03 μM) ([1]; compound at 0.03 μM, 0.03 µM): 100% and 103%
Ki ([2]; [3H]MK-912, Sf9, repeat assays each datapoint shown): 9.18 nM
Percentage inhibition of ligand binding, Adrenergic α2A (0.03 μM) ([2]; compound at 0.03 μM, [3H]MK-912, repeat datapoints each shown): 54%
Percentage inhibition of ligand binding, Adrenergic α2A (0.1 μM) ([2]; compound at 0.1 μM, [3H]MK-912, repeat datapoints each shown, 0.1 µM): 80% and 85%
Compound: 2-(4-fluoro-phenyl)-1-(9-methyl-1,2,3,4,5,10c-hexahydro-3a,6-diaza-cyclopenta[c]fluoren-6-yl)-propan-2-ol [II-121b]

inhibition at 0.03 µM [1]: 88%
inhibition at 0.1 µM [2, 4]: 36%
Compound: Cc1ccc2c(c1)c1c(n2CC(N=[N+]=[N-])c2ccncc2)CCN(C)C1 (racemic) [V-1a, 5-(2-azido-2-(pyridin-4-yl)ethyl)-2,3,4,5-tetrahydro-2,8-dimethyl-1H-pyrido[4,3-b]indole]

Percentage inhibition of ligand binding, Adrenergic α2B ([1]; compound at 0.03 μM, 0.03 µM): 79%
Compound: Cc1ccc2c(c1)c1c(n2CC(N)c2ccncc2)CCN2CCCC12 (single isomer, unassigned) [II-4a, 2-(9-methyl-1,2,3,4,5,10c-hexahydro-3a,6-diaza-cyclopenta[c]fluoren-6-yl)-1-pyridin-4-yl-ethylamine]

Percentage inhibition of ligand binding, Adrenergic α2B ([1]; compound at 0.03 μM, 0.03 µM): 100%
Compound: Cc1ccc2c(c1)c1c(n2CC(N)c2ccncc2)CCN2CCCC12 (single isomer, unassigned) [II-4b, 2-(9-methyl-1,2,3,4,5,10c-hexahydro-3a,6-diaza-cyclopenta[c]fluoren-6-yl)-1-pyridin-4-yl-ethylamine]

Percentage inhibition of ligand binding, Adrenergic α2B ([1]; compound at 0.03 μM, 0.03 µM): 8%
Percentage inhibition of ligand binding, Adrenergic α2A [2, 6]: 0%
Compound: OCCN1CCc2c(c3cc(Cl)ccc3n2CC(O)c2cccnc2)C1 (single isomer, unassigned) [II-94a]

Percentage inhibition of ligand binding, Adrenergic α2B ([1]; compound at 0.03 μM, 0.03 µM): 12%
Percentage inhibition of ligand binding, Adrenergic α2A [2, 6]: 7%
Compound: Cc1cnc2c(c1)c1c(n2CC(O)c2ccc(C)nc2)CCN(C)C1 (single isomer, unassigned) [II-100a]

Percentage inhibition of ligand binding, Adrenergic α2B (0.03 μM) ([1]; compound at 0.03 μM, 0.03 µM): 4%
Compound: Cc1cnc2c(c1)c1c(n2CCc2ccc(C)nc2)CCN2CCCCC12 (single isomer, unassigned) [IV-8a]

Percentage inhibition of ligand binding, Adrenergic α2B ([1]; compound at 0.03 μM): 5%
Compound: Cc1ccc2c(c1)c1c(n2C(C)C(O)c2ccncc2)CCN(C)C1 (stereo not drawn) [II-98b]

inhibition at 0.03 µM [1]: 106%
Compound: CN1CCc2c(c3cc(Cl)ccc3n2CC(O)c2ccncc2)C1 (stereo not drawn) [compound 4]

inhibition at 0.03 µM [1]: 61%
Compound: Cc1ccc2c(c1)c1c(n2CC(O)c2ccncc2)CN(C)CC1 (stereo not drawn) [compound 8]

inhibition at 0.03 µM [1]: 56%
inhibition at 0.1 µM [2, 4]: -1%
Compound: Cc1ccc2c(c1)c1c(n2CC(O)c2ccncc2)C(C)N2CCC1C2 (stereo not drawn) [compound 38]

inhibition at 0.03 µM [1]: 45%
inhibition at 0.1 µM [2, 4]: 24%
Compound: CN1CCc2c(n(CC(O)c3ccncc3)c3ccc(Cl)cc23)C1 (stereo not drawn) [compound 41]

— patent US9550782B2, “Compounds and methods for treating diabetes” (Medivation Technologies, Inc., priority 2011, dated 2017)
